Laboratory results reported in patent EP0765868A1, “Substituted bezoyl guanidines, process for their preparation, their use as antiarrhythmics or diagnostic agent as well as pharmaceuticals containing them” (HOECHST AKTIENGESELLSCHAFT, priority 1995, dated 1997).
Where a name gives a salt, the structure may show the parent alone.

Assays:
[1] = tested on: Rattenherzen; conditions: isolated animal hearts (rat); Eur. Heart J. 9 (suppl.1): 167 (1988); cited from earlier work
[2] = biological target: T1, Na^+/H^+-Exchanger (Oryctolagus cuniculus, UniProt P23791); experiment: Inhibition of the Na+/H+ exchanger of rabbit erythrocytes (amiloride-sensitive Na+ influx, flame photometry); type: cell-based, Kaninchen; conditions: Kaninchenerythrocyten; hyperosmolar salt-sucrose medium, pH 7,4, 37°C
T1 construct: den Na^+-Influx in die Erythrocyten via Na^+/H^+-Austausch flammenphotometrisch bestimmen zu können; from tissue; host or cells: Erythrocytes in whole blood from the ear arteries of cholesterol-fed White New Zealand rabbits
Text: Inhibition des Na^+/H^+-Exchangers von Kaninchenerythrocyten
Weiße Neuseeland-Kaninchen (Ivanovas) erhielten eine Standard-Diät mit 2% Cholesterin für sechs Wochen, um den Na^+/H^+-Austausch zu aktivieren und so den Na^+-Influx in die Erythrocyten via Na^+/H^+-Austausch flammenphotometrisch bestimmen zu können. Das Blut wurde den Ohrarterien entnommen und durch 25 IE Kalium-Heparin ungerinnbar gemacht. Ein Teil jeder Probe wurde zur Doppelbestimmung des Hämatokrits durch Zentrifugieren benutzt. Aliquots von jeweils 100 µl dienten zur Messung des Na^+-Ausgangsgehalts der Erythrocyten.
Um den Amilorid-sensitiven Natrium-Influx zu bestimmen, wurden 100 µl jeder Blutprobe in jeweils 5 ml eines hyperosmolaren Salz-Sucrose-Mediums (mmol/l: 140 NaCl, 3 KCl, 150 Sucrose, 0,1 Ouabain, 20 Tris-hydroxymethylaminomethan) bei pH 7,4 und 37°C inkubiert. Die Erythrocyten wurden danach dreimal mit eiskalter MgCl2-Ouabain-Lösung (mmol/l: 112 MgCl2, 0,1 Ouabain) gewaschen und in 2,0 ml destilliertem Wasser hämolysiert. Der intrazelluläre Natriumgehalt wurde flammenphotometrisch bestimmt.
Der Na^+-Nettoinflux wurde aus der Differenz zwischen Natrium-Ausgangswerten und dem Natriumgehalt der Erythrocyten nach Inkubation errechnet. Der Amilorid-hemmbare Natrium-Influx ergab sich aus der Differenz des Natriumgehalts der Erythrocyten nach Inkubation mit und ohne Amilorid 3 x 10^-4 mol/l. Auf diese Weise wurde auch bei den erfindungsgemäßen Verbindungen verfahren.

T1 sequence (P23791 whole entry): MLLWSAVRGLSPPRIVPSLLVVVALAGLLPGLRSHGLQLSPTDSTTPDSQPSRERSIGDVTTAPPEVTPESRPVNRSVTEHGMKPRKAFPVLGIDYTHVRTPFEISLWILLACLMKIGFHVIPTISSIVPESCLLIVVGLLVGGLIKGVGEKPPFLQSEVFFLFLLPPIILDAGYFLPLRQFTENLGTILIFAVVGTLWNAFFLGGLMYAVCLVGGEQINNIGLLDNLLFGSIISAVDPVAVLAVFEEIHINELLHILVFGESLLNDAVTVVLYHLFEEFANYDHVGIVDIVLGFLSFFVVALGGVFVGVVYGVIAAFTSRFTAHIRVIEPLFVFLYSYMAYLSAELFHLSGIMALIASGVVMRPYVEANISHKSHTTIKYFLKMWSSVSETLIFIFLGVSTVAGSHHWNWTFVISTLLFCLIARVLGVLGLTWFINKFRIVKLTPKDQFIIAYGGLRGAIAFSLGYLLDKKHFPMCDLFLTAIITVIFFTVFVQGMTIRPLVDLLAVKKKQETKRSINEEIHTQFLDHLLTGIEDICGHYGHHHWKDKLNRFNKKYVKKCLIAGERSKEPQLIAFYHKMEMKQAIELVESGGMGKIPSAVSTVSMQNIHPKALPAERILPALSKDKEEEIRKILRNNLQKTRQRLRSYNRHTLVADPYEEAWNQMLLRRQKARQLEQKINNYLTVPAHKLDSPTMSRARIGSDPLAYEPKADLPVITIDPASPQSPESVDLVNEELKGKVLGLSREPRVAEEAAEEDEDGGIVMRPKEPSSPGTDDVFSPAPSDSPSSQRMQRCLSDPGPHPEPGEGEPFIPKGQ

IC50 [2] | Compound | künstlich ausgelöstes Kammerflimmern [1]
 | N=C(N)NC(=O)c1nc(Cl)c(N)nc1N [Amilorid] | völlig unterdrückt
0.3 µM | CC(C)c1ccc(C(=O)N=C(N)N)cc1C(O)(O)C(F)(F)F [Beispiel 3, 4-Isopropyl-3-(1',1'-bis-hydroxy-2',2',2'-trifluor)-ethylbenzoylguanidin-hydrochlorid] | 
1.5 µM | NC(N)=NC(=O)c1ccc(C(O)(O)C(F)(F)F)cc1 [Beispiel 1, 4-(1',1'-Bishydroxy-2',2',2'-trifluor)-ethyl-benzoylguanidinhydrochlorid] | 
1 µM | NC(N)=NC(=O)c1ccc(F)c(C(O)(O)C(F)(F)F)c1 [Beispiel 2, 4-Fluor-3-(1',1'-Bishydroxy-2',2',2'-trifluor)ethyl-benzoylguanidinhydrochlorid] | 
 | CCN(c1nc(N)c(C(=O)NC(=N)N)nc1Cl)C(C)C [Ethylisopropylamilorid] | Noch potenter als Amilorid
